Data: patent publication US20040219201A1, “Tempamine compositions and methods of use” (priority 2001, published 2004)

Columns and labels:
[1] = assay type: in vivo; conditions: free tempamine 1.8 mg/kg, four hours after injection, healthy and arthritic rats
Experimental: Studies using the AA model are described in Example 6. In this study, AA was induced in male rats by injection of microbacteria in Freund's ajuvavnt. Liposomes containing tempanine were prepared as described in Example 5A by remote loading tempamine against an ammonium sulfate gradient. The liposomes were administered by injection to healthy and arthritic rats 22 days after inducement of AA. At regular time intervals after administration of the liposomes, plasma and tissue samples were taken to determine the biodistribution and pharmacokinetics.
Adjuvent arthritis (AA) was induced by a single intradermal injection of mycobacteria in mineral oil (Freund's adjuvant). In strains of rats susceptible to adjuvant arthritis, the non-specific primary inflamnmation at the injection site was followed on about the 10th post-injection day by a disseminated polyarthritis or secondary specific inflammation. Lewis strain rats, which are highly susceptible to AA, were injected with 1 mg of Mycobacterium tuberculosis H37Ra (Difco, Detroit, Mich., USA) in Freund's complete adjuvant (FCA) (Difco), subcutaneously at the base of the tail. Maximum swelling of the paw occurred between 20 and 27 days
Adjuvent (maximum swelling). Tempamine was administered at a dose of 1.8 mg tempamine/kg (10.5 μmol/kg). The phospholipid concentration of the injected liposomes was 42 mg/kg (56 μmol/kg). […]

[2] = test system: M-109S (doxorubicin-sensitive human breast carcinoma); assay: Cytotoxicity assay (methylene blue); tempamine alone or doxorubicin plus tempamine; assay type: cell-based; conditions: Homo sapiens, read-out: IC50 (cytotoxicity)
Experimental: (§1) As described in Example 1, the cytotoxicity of tempamine was determined on three cell lines, MCF-7 (human breast adenocarcinoma), M-109S (doxorubicin-sensitive human breast carcinoma), and M-109R (doxorubicin-resistant human breast carcinoma). The effect of free tempamine on cell proliferation was determined by a methylene blue assay as described in Example 1B.
(§2) In yet another aspect, the invention contemplates administration of tempamine in combination with chemotherapeutic agent. […] Doxorubicin was chosen as a model chemotherpeutic agent. The enhancement of doxorubicin cytotoxicity by tempamine was tested on three cell lines, as described in Example 1A. A cytotoxicity assay as described in Example 1B was used. Two of the cell lines, MCF-7 and M-109S, were doxorubicin-sensitive lines and one cell line, M-109R, was doxorubicin resistant. MCF-7 cells are more sensitive to tempamine (100 μM caused 75% growth inhibition), but are less sensitive to doxorubicin, than are M-109S cells.
(§3) MCF-7 (human breast adenocarcinoma), M-109S (doxorubicin-sensitive human breast carcinoma), and M-109R (doxorubicin-resistant human breast carcinoma) were maintained in RPMI medium (Biological Industries, Beit HaEmek, Israel) supplemented with 10% fetal calf serum (FCS). The cell lines were maintained under standard culture conditions at 37° C. in a humidified 5% CO2 atmosphere.
(§4) The effect of tempamine on cell proliferation was determined by the methylene blue assay (Horowitz, A. T., et al., Biochim BiophysActa. 1109:203, (1992)). Briefly, cells were seeded onto 96-well plates (MCF cells at a density of 6×10^3 cells per well, and M-109S and M-109R at a density of 1.5×10^3 cells per well) and allowed to grow for 24 hours prior to treatment with different concentrations of tempamine. After the addition of tempamine (5×10^−5 to 4×10^−4), the cells were incubated in RPMI +10% FCS for four days without change of medium. Then the cells were fixed with 2.5% glutaraldehyde, stained with methylene blue and assayed spectrophotometrically.

[3] = test system: M-109R (doxorubicin-resistant human breast carcinoma); assay: as above; assay type: cell-based
Experimental: as §1, §2, §3, §4

[4] = test system: MCF-7 cancer cells; assay: Apoptosis detection by merocyanine-540 staining and flow cytometry; assay type: cell-based, human; conditions: MCF-7, 1 mM tempamine, 24 hours; 14% without treatment
Excerpt: In another study, the MCF-7 cell line was used to investigate the mechanism of growth inhibition by tempamine. Untreated cells and tempamine-treated cells (24-hours exposure) were contacted with merocyanine-540. Merocyanine-540 binds selectively to phophatidylserine, which appears at the external surface of the cell at the beginning of apoptosis and is therefore one of the apoptotic markers (Reid, S., et al., J. lmmnol. Methods 192:43 (1996)). After interaction with merocyanine-540, cells were analyzed by flow cytometry as described in the methods section below. […] After the 24 hour treatment period, the cells were trypsinized, stained with merocyanine-540 and analyzed by flow cytometry. […]
Apoptosis was assessed by flow cytometry (FACScan). 1×10^6 cells were removed from culture, washed with PBS, and stained with merocyanine-540 (Reid, S., et al., J. Immunol. Methods 192:43 (1996). Briefly, the cell pellet was resuspended in 500 μl PBS. 2.5 μl of a 1 mg/ml solution of merocyanine-540 was added to the cells, incubated for 2 min at room temperature in the dark. The cells were washed, resuspended in 1 ml PBS, and run immediately on a fluorescence-activated cell-sorting flow cytometer (Vantage, Becton Dickinson, Rutherford, N.J., USA).

In the case of `CC1(C)CC(N)CC(C)(C)N1[O]` [tempamine, 2,2,6,6-tetramethylpiperidine-4-amino-1-oxyl], the “amount of tempamine in plasma and in the tested tissues (detection limit)” value [1] is reported as less than 0.5 µM, the IC50 [2] is reported as roughly 700 µM and the IC50 ([3]; Homo sapiens, read-out: IC50 (cytotoxicity)) is reported as roughly 700 µM. The “cell sensitivity to doxorubicin” value ([3]; M-109R, addition of 200 μM tempamine) was “enhanced cell sensitivity to doxorubicin” and the “fluorescently labeled (apoptotic) cells” value [4] was 77%.
